Source: publication PMC1828167, “HIV-1 integrase inhibitors are substrates for the multidrug transporter MDR1-P-glycoprotein” (Retrovirology, 2007)

Columns and labels:
[1] = test system: HTLVIIIB laboratory strain of HIV-1 virus; assay: Anti-HIV activity in HIV-infected H9 cells (p24 antigen ELISA); assay type: cell-based; conditions: HIV infected H9 cell line, 3 days, 50% Effective Concentration
Protocol: (§1) Anti-HIV activity was measured in the human T lymphoid H9 cells. To this purpose, cells were cultured in RPMI 1640, supplemented with 2 mM L-glutamine, penicillin, streptomycin and 10% fetal bovine serum (FBS), and infected with the HTLVIIIB laboratory strain of HIV-1 virus (100000 TCID50 – Tissue Culture Infective Dose- per 10^6 […]). After two hours of incubation, cells were washed with medium, and cultured at 37°C (5000 cells/well in 96-well microplates) for 3 days in presence of medium and test compounds at concentrations ranging from 50 μM to 0.1 μM. After 3 days p24 antigen concentration in the supernatants was measured by an ELISA assay (Innotest HIV antigen mAb, Innogenetics NV Belgium). Cell viability was determined by the trypan blue exclusion method.
(§2) The 50% inhibitory drug concentration (IC50) and the 50% cytotoxic drug concentration (CC50) were calculated by the median effect equation using Calcusyn Version 2.0 program (Biosoft Cambridge)

[2] = molecular target: T1, MDR1-P-glycoprotein (P-gp) (Homo sapiens, UniProt P08183); assay: UIC2 shift assay (P-gp functional conformation) in CEM-VBL10 cells; assay type: cell-based; design: CEM-VBL10 and CEM-VBL100 cells were isolated by stepwise selection of the parental drug sensitive CCRF-CEM (CEM) in the presence of increasing concentrations of VBL; endogenous in cells; host or cells: CEM-VBL10 (UIC2 shift assay) and CEM-VBL100 (doxorubicin efflux assay), MDR variants of CCRF-CEM; key to UIC2 epitope up-modulation (A): the + or ++ symbols indicate arbitrary units in measuring and differentiating the level of UIC2 epitope modulation and doxorubicin retention; the + or ++ symbols indicate arbitrary units in measuring and differentiating the level of UIC2 epitope modulation and doxorubicin retention; conditions: for mAb UIC2 reactivity: 37°C (Fig 1)
Protocol: (§3) The anti CD4-FITC mAb was purchased from Vinci Biochem, Firenze, Italy. The mAb UIC2 [30] was kindly provided by Dr. E. Mechetner (Chemicon Inc, Temecula, CA). For determination of P-gp expression, the mAb MM4.17, recognizing an extracellular P-gp epitope on intact/living human MDR cells, was also used. Both UIC2 and MM4.17 mAbs were used in a highly purified form.
The UIC2 shift assay was performed under physiological conditions as previously described. CEM-VBL10 cells (1 × 10^6) were resuspended in 1 ml of PBS containing 2% FCS and allowed to equilibrate at 37°C in a water bath for 10 min. The various IINs were added to samples (final concentrations 100 or 50 μg/ml) and incubated for additional 15 min at 37°C with purified UIC2 mAb (final concentration 12.5 μg/ml). VBL (10 μg/ml), which is a well known UIC2 shifting agent, and the drug diluents were used as positive and negative controls, respectively. Cells were then washed twice in ice-cold PBS containing 2% FCS with 0.01 % sodium azide (Shift Stop Buffer, SSB), stained on ice in SSB for additional 15 min with 5 μg/ml of fluorescein -conjugated goat-antimouse antibody (FITC-GAM, Cappel, West Chester, Pa, USA), washed twice with ice cold PBS/FACS and maintained in ice until flow cytometry analysis. The UIC2 shift is the difference between UIC2 binding in the presence versus the absence of the IINs under physiological conditions (37°C).

[3] = molecular target: T1, MDR1-P-glycoprotein (P-gp); assay: MDR efflux assay: doxorubicin efflux inhibition in CEM-VBL100 cells (flow cytometry); assay type: cell-based; design: CEM-VBL10 and CEM-VBL100 cells were isolated by stepwise selection of the parental drug sensitive CCRF-CEM (CEM) in the presence of increasing concentrations of VBL; endogenous in cells; host or cells: CEM-VBL10 (UIC2 shift assay) and CEM-VBL100 (doxorubicin efflux assay), MDR variants of CCRF-CEM; key to Doxorubicin efflux inhibition (B): the + or ++ symbols indicate arbitrary units in measuring and differentiating the level of UIC2 epitope modulation and doxorubicin retention; the + or ++ symbols indicate arbitrary units in measuring and differentiating the level of UIC2 epitope modulation and doxorubicin retention; conditions: for Doxorubicin efflux inhibition (B): CEM-VBL100 cells
Protocol: […] The cells were incubated with doxorubicin (10 μg/ml) only or drug diluent in parallel cultures. At the end of incubation, the cells were washed in serum-free medium and resuspended in BM in the presence of the IINs or Verapamil (drug diluent was added in control samples) for a further 1 h at 37°C. Finally, cells were washed twice with ice-cold PBS/FACS, and analyzed in a flow cytometer (FACScan, Becton Dickinson, San Josè, CA).

H9 cells = assay: Cytotoxicity in HIV infected H9 cell line (trypan blue exclusion); assay type: cell-based, human; conditions: 50% Cytotoxic Concentration
Protocol: as §1, §2

[4] = test system: P-gp expression in CEMrev cells; assay: Induction of P-gp expression in CEMrev cells (flow cytometry); assay type: cell-based, human; conditions: for % of P-gp expressing cells: CEMrev
Description: Similarly to some of the isozymes involved in drug metabolism, the expression of P-gp is inducible. It is therefore important to assess whether P-gp induction occurs upon exposure to IINs, with potential implications for drug metabolism. To this aim, we investigated whether the treatment with the IINs RDS 1974, RDS 1983, RDS 1984 and RDS 1996, all having different biological and physicochemical properties (Table 1), modulate P-gp expression in the human CD4+ CEM cell system. The parental drug sensitive CEM cell line and the revertant of its derivative CEM-VBL10 MDR cell variant (CEMrev), expressing very low or undetectable amount of P-gp, were cultured in the presence of the indicated IINs ([…]; 25 μg/ml for RDS 1983 and RDS 1984) for 28 days (RDS 1983, RDS 1984 and RDS 1996) or 104 days (RDS 1974). As a control for P-gp modulation, CEMrev cells were exposed to VBL, shown to increase P-gp expression.
The multidrug resistant (MDR) variants CEM-VBL10 and CEM-VBL100 cells were isolated by stepwise selection of the parental drug sensitive CCRF-CEM (CEM) in the presence of increasing concentrations of VBL [31, 32]. Cells were grown under standard conditions for mammalian cells cultured in suspension. The basic medium (BM) for cell culturing consisted of RPMI-1640 supplemented with 10% foetal calf serum (FCS), L-glutamine (2 mM) penicillin (100 U/mL) and streptomycin (100 U/mL). All these components were purchased from Hyclone (Logan, Utah). Identical BM, culture conditions and trypsin (Hyclone) were used for the adherent MDR variant KB.V1 of the human oral epidermoid carcinoma KB cells. To test the ability of selected IINs (RDS 1974, […], RDS 1984 and RDS 1996) to induce de novo expression of P-glycoprotein, the drug-sensitive CEMrev cell line was used; this cell line derives from the CEM-VBL10 MDR cell line, cultured for more than 2 years in VBL-free medium and expresses very low (1–3%) or undetectable amounts of P-gp.
as §3

HIV-1 Integrase (IN) = molecular target: HIV-1 Integrase (IN); design: method as in PMID 16539381; conditions: HIV-1 integration strand transfer step; 50% Inhibitory Concentration; cited from earlier work
[5] = Cytotoxicity in HIV infected H9 cell line (trypan blue exclusion); assay type: cell-based, human; conditions: human, HIV-1 (HTLVIIIB) infected H9 T lymphoid cells, 50% Cytotoxic Concentration
Protocol: as §1, §2

[6] = molecular target: T1, MDR1-P-glycoprotein (P-gp); assay: Doxorubicin efflux/retention in KB-V1 MDR cells (confocal microscopy); conditions: 25 μg/ml, 5 μg/ml doxorubicin, 1 and 3 hrs of extrusion
[7] = test system: P-gp expression in CEM cells; assay: Induction of P-gp expression in parental drug sensitive CEM cells (flow cytometry); assay type: cell-based, human; conditions: 25 μg/ml, 28 days of culture
Description: Similarly to some of the isozymes involved in drug metabolism, the expression of P-gp is inducible. It is therefore important to assess whether P-gp induction occurs upon exposure to IINs, with potential implications for drug metabolism. To this aim, we investigated whether the treatment with the IINs RDS 1974, RDS 1983, RDS 1984 and RDS 1996, all having different biological and physicochemical properties (Table 1), modulate P-gp expression in the human CD4+ CEM cell system. The parental drug sensitive CEM cell line and the revertant of its derivative CEM-VBL10 MDR cell variant (CEMrev), expressing very low or undetectable amount of P-gp, were cultured in the presence of the indicated IINs (10 μg/ml for RDS 1974 and RDS 1996; 25 μg/ml for RDS 1983 and RDS 1984) for 28 days (RDS 1983, RDS 1984 and RDS 1996) or 104 days (RDS 1974). As a control for P-gp modulation, CEMrev cells were exposed to VBL, shown to increase P-gp expression.
The multidrug resistant (MDR) variants CEM-VBL10 and CEM-VBL100 cells were isolated by stepwise selection of the parental drug sensitive CCRF-CEM (CEM) in the presence of increasing concentrations of VBL [31, 32]. Cells were grown under standard conditions for mammalian cells cultured in suspension. […]

T1 sequence (P08183 whole entry): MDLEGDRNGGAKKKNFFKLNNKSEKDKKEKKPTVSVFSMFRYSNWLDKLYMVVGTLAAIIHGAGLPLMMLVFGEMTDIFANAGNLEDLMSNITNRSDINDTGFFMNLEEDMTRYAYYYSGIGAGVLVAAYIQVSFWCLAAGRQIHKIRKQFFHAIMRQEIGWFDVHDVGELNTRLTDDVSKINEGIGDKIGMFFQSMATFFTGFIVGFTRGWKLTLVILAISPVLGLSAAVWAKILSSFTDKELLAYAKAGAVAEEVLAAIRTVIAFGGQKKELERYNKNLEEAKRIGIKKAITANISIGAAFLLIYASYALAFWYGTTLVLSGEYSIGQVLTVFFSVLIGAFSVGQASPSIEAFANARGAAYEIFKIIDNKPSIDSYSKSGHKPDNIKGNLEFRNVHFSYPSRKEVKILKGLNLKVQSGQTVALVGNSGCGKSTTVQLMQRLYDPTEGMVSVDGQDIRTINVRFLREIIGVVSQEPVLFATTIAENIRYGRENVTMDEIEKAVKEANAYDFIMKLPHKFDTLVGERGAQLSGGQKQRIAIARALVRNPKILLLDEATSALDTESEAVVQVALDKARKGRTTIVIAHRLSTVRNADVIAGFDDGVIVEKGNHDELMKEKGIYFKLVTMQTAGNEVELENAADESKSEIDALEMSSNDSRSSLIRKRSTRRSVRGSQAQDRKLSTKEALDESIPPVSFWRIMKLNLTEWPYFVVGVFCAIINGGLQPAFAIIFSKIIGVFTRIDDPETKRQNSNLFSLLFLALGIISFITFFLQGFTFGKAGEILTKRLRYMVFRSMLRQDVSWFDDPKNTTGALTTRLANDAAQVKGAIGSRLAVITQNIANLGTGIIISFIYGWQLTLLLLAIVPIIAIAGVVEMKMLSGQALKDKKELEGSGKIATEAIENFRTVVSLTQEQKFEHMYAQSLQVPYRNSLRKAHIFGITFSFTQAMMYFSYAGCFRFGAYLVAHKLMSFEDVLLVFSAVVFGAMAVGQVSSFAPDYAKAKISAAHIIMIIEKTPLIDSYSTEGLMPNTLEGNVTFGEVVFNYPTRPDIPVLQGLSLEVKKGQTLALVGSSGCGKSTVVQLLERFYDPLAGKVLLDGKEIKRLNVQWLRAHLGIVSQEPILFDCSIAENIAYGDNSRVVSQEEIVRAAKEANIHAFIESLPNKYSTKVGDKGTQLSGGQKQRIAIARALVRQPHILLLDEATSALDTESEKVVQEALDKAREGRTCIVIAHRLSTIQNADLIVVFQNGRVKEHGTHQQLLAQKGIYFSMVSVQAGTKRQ

## O=C(O)C(=O)/C=C(\O)c1ccc2c(c1)c(=O)c(/C(O)=C/C(=O)C(=O)O)cn2Cc1ccc(F)cc1 [RDS 1997]
[1]
  EC50: 2.44 µM
[2]; 50 μg/ml
  UIC2 epitope up-modulation (A): +
[2]; 100 μg/ml
  UIC2 epitope up-modulation (A): ++
[3]; 25 μg/ml
  Doxorubicin efflux inhibition (B): +
[3]; 50 μg/ml
  Doxorubicin efflux inhibition (B): ++
H9 cells
  CC50: > 50 µM

## CC[C@]1(O)C[C@@H]2CN(CCc3c([nH]c4ccccc34)[C@@](C(=O)OC)(c3cc4c(cc3OC)N(C)[C@H]3[C@@](O)(C(=O)OC)[C@H](OC(C)=O)[C@]5(CC)C=CCN6CC[C@]43[C@@H]65)C2)C1 [Vinblastine]
[2]; 10 μg/ml
  mAb UIC2 reactivity: increased
[4]; CEMrev cell line, compared with the drug diluent control
  P-gp expression (in words): strong induction of P-gp expression
[4]; 10 μg/ml, 28 days of culture
  % of P-gp expressing cells: 30–35%
[4]; 10 μg/ml, 104 days of culture
  % of P-gp expressing cells: 60–70%

## O=C(O)/C(O)=C/C(=O)c1cn(Cc2c(F)cccc2F)c2ccccc2c1=O [RDS 1984]
[1]; Human immunodeficiency virus 1, 72 h
  EC50: 9.64 µM
[2]; 50 μg/ml
  mAb UIC2 reactivity: increased
[3]; CEM-VBL100 MDR cells, 1 μg/ml to 100 μg/ml (Fig 2)
  intracellular accumulation of doxorubicin: intracellular accumulation of doxorubicin with a dose dependent effect
HIV-1 Integrase (IN)
  IC50: 19 nM
[5]
  CC50 at 3 days: > 50 µM
[6]
  doxorubicin retention: doxorubicin was retained
[4]; 25 μg/ml, 28 days of culture
  % of P-gp expressing cells: 15–18%
[7]
  % of P-gp expressing cells: 0%
